Data as given in PubChem BioAssay (NCI).
Several values for one entry are separate records, joined by “and”; a condition that tells them apart may be missing. Equal entries are not always repeated.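 Test compounds were applied to cells in 96-well plates for 48 hours at 5 doses. GI50 marks 50% less growth. TGI marks complete inhibition of growth.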

How the values were obtained:
Assay in all cases: NCI-60 cell line screen, 48 h
HCC-2998 colon = test system: HCC-2998 colon
HOP-62 NSCLC = test system: HOP-62 NSCLC
MDA-MB-435 = test system: MDA-MB-435
RPMI-8226 leukemia = test system: RPMI-8226 leukemia
SF-295 CNS = test system: SF-295 CNS
SK-MEL-2 melanoma = test system: SK-MEL-2 melanoma
SK-MEL-28 melanoma = test system: SK-MEL-28 melanoma
SNB-19 CNS = test system: SNB-19 CNS
T-47D breast = test system: T-47D breast
UACC-62 melanoma = test system: UACC-62 melanoma

C/C(=N\NC(=O)c1ccncc1)c1ccc2ccccc2c1O
TGI (HCC-2998 colon): 53.8 µM
TGI (HOP-62 NSCLC): > 72.7 µM
TGI (MDA-MB-435): > 100 µM
TGI (RPMI-8226 leukemia): > 64.4 µM
TGI (SF-295 CNS): 20.7 µM
TGI (SK-MEL-2 melanoma): > 100 µM
TGI (SK-MEL-28 melanoma): > 100 µM
TGI (SNB-19 CNS): > 100 µM
TGI (T-47D breast): 14.5 µM
TGI (UACC-62 melanoma): 21.6 µM

CCN(CC)c1cc(/C=C/c2ccc(OC)c(OC)c2)nc2cc(F)c(F)cc12
GI50 (HCC-2998 colon): 70.6 µM
TGI (HCC-2998 colon): > 100 µM
GI50 (HOP-62 NSCLC): 2.08 µM
TGI (HOP-62 NSCLC): 5.44 µM
GI50 (MDA-MB-435): > 100 µM
TGI (MDA-MB-435): > 100 µM
GI50 (RPMI-8226 leukemia): 22.1 µM
TGI (RPMI-8226 leukemia): > 100 µM
GI50 (SF-295 CNS): 2.03 µM
TGI (SF-295 CNS): 4.63 µM
GI50 (SK-MEL-2 melanoma): 1.83 µM
TGI (SK-MEL-2 melanoma): 3.45 µM
GI50 (SK-MEL-28 melanoma): 14.9 µM
TGI (SK-MEL-28 melanoma): > 100 µM
GI50 (SNB-19 CNS): 2.34 µM
TGI (SNB-19 CNS): 7.09 µM
GI50 (T-47D breast): 3.38 µM
TGI (T-47D breast): 18.4 µM
GI50 (UACC-62 melanoma): 7.04 µM
TGI (UACC-62 melanoma): > 100 µM

CCN(CC)CCCNc1cccc2c(SCc3ccccc3)ccnc12
GI50 (HCC-2998 colon): 1.73 µM
TGI (HCC-2998 colon): 3.2 µM
GI50 (HOP-62 NSCLC): 1.61 µM
TGI (HOP-62 NSCLC): 3.05 µM
GI50 (MDA-MB-435): 1.84 µM
TGI (MDA-MB-435): 3.65 µM
GI50 (RPMI-8226 leukemia): 1.24 µM
TGI (RPMI-8226 leukemia): 3.37 µM
GI50 (SF-295 CNS): 1.8 µM
TGI (SF-295 CNS): 3.48 µM
GI50 (SK-MEL-2 melanoma): 1.89 µM
TGI (SK-MEL-2 melanoma): 3.56 µM
GI50 (SK-MEL-28 melanoma): 1.99 µM
TGI (SK-MEL-28 melanoma): 3.5 µM
GI50 (SNB-19 CNS): 1.83 µM
TGI (SNB-19 CNS): 3.89 µM
GI50 (T-47D breast): 1.93 µM
TGI (T-47D breast): 4.29 µM
GI50 (UACC-62 melanoma): 1.74 µM
TGI (UACC-62 melanoma): 3.37 µM

CC(=O)OC1CC(n2cc(F)c(=O)[nH]c2=O)OC1CO (stereo not given)
TGI (HCC-2998 colon): 8.33 µM
TGI (HOP-62 NSCLC): 10.1 µM
TGI (MDA-MB-435): > 100 µM
TGI (RPMI-8226 leukemia): > 100 µM
TGI (SF-295 CNS): > 89 µM
TGI (SK-MEL-2 melanoma): > 100 µM
TGI (SK-MEL-28 melanoma): > 100 µM
TGI (SNB-19 CNS): > 100 µM
TGI (T-47D breast): > 100 µM
TGI (UACC-62 melanoma): > 22.4 µM

COc1ccc(NC(=O)n2nc(N)c3ccccc32)cc1OC
GI50 (HCC-2998 colon): 61.1 µM
TGI (HCC-2998 colon): > 100 µM
GI50 (HOP-62 NSCLC): 75.2 µM
TGI (HOP-62 NSCLC): > 100 µM
GI50 (MDA-MB-435): > 100 µM
TGI (MDA-MB-435): > 100 µM
GI50 (RPMI-8226 leukemia): 21.1 µM
TGI (RPMI-8226 leukemia): 80.8 µM
GI50 (SF-295 CNS): 37.6 µM
TGI (SF-295 CNS): > 100 µM
GI50 (SK-MEL-2 melanoma): 37.2 µM
TGI (SK-MEL-2 melanoma): > 100 µM
GI50 (SK-MEL-28 melanoma): > 100 µM
TGI (SK-MEL-28 melanoma): > 100 µM
GI50 (SNB-19 CNS): > 100 µM
TGI (SNB-19 CNS): > 100 µM
GI50 (T-47D breast): 33 µM
TGI (T-47D breast): > 100 µM
GI50 (UACC-62 melanoma): 52.3 µM
TGI (UACC-62 melanoma): > 100 µM

CC[C@H]1CN2CCc3cc(OC)c(OC)cc3[C@@H]2C[C@@H]1C[C@H]1NCCc2cc(O)c(OC)cc21
TGI (HCC-2998 colon): 0.0484 µM and 0.0472 µM
GI50 (HOP-62 NSCLC): 0.0245 µM and 0.0294 µM
TGI (HOP-62 NSCLC): 0.0967 µM and 0.735 µM and 0.13 µM
GI50 (MDA-MB-435): 0.0183 µM
TGI (MDA-MB-435): 0.0377 µM and 0.156 µM
TGI (RPMI-8226 leukemia): 0.0779 µM and 0.0542 µM
TGI (SF-295 CNS): 0.0674 µM and 0.0385 µM and 0.153 µM
TGI (SK-MEL-2 melanoma): 0.0493 µM and 0.0294 µM and 0.0532 µM
TGI (SK-MEL-28 melanoma): 0.0678 µM and 0.0487 µM and 0.266 µM
TGI (SNB-19 CNS): 0.0977 µM and 0.0271 µM
GI50 (T-47D breast): 0.022 µM
TGI (T-47D breast): 0.0776 µM
TGI (UACC-62 melanoma): 0.0725 µM and 0.0247 µM and 0.105 µM

CC(C)CCOc1ccc(-c2n[nH]c(C(F)(F)F)c2-c2cncc(C#N)c2)c(O)c1
GI50 (HCC-2998 colon): 3.05 µM
TGI (HCC-2998 colon): 24.3 µM
GI50 (HOP-62 NSCLC): 2.61 µM
TGI (HOP-62 NSCLC): 7.65 µM
GI50 (MDA-MB-435): 3.6 µM
TGI (MDA-MB-435): 32.6 µM
GI50 (RPMI-8226 leukemia): 0.697 µM
TGI (RPMI-8226 leukemia): 4.65 µM
GI50 (SF-295 CNS): 2.33 µM
TGI (SF-295 CNS): 6.7 µM
GI50 (SK-MEL-2 melanoma): 1.75 µM
TGI (SK-MEL-2 melanoma): 5.3 µM
GI50 (SK-MEL-28 melanoma): 2.17 µM
TGI (SK-MEL-28 melanoma): > 100 µM
GI50 (SNB-19 CNS): 2.98 µM
TGI (SNB-19 CNS): 31.5 µM
GI50 (T-47D breast): 1.56 µM
TGI (T-47D breast): 6.54 µM
GI50 (UACC-62 melanoma): 1.22 µM
TGI (UACC-62 melanoma): 5.38 µM

CCn1c2c(n(CC)c1=S)-c1c(n(CC)c(=S)n1CC)SSSS2
TGI (HCC-2998 colon): 49.4 µM
TGI (HOP-62 NSCLC): > 100 µM
TGI (MDA-MB-435): 27.5 µM
TGI (RPMI-8226 leukemia): 9.34 µM
TGI (SF-295 CNS): > 80.3 µM
TGI (SK-MEL-2 melanoma): 31.2 µM
TGI (SK-MEL-28 melanoma): 18.7 µM
TGI (SNB-19 CNS): > 100 µM
TGI (T-47D breast): 5.16 µM
TGI (UACC-62 melanoma): 18.6 µM

CN(C)c1ccc(/C=C(/NC(=O)c2ccccc2)c2nc3ccc(Cl)cc3[nH]2)cc1
TGI (HCC-2998 colon): > 75.5 µM
TGI (HOP-62 NSCLC): > 100 µM
GI50 (MDA-MB-435): 29.8 µM
TGI (MDA-MB-435): > 100 µM
TGI (RPMI-8226 leukemia): > 82.2 µM
TGI (SF-295 CNS): > 87.3 µM
TGI (SK-MEL-2 melanoma): 99.4 µM
TGI (SK-MEL-28 melanoma): > 100 µM
TGI (SNB-19 CNS): > 100 µM
GI50 (T-47D breast): 17.5 µM
TGI (T-47D breast): > 77.1 µM
TGI (UACC-62 melanoma): 97.6 µM

O=[N+]([O-])c1ccc(-c2nc(-c3ccccc3)c(-c3ccccc3)n2-c2ccccc2)cc1
GI50 (HCC-2998 colon): 2.07 µM
TGI (HCC-2998 colon): 4.1 µM
GI50 (HOP-62 NSCLC): 5.36 µM
TGI (HOP-62 NSCLC): > 86.2 µM
GI50 (MDA-MB-435): 2.5 µM
TGI (MDA-MB-435): 7.63 µM
GI50 (RPMI-8226 leukemia): 1.53 µM
TGI (RPMI-8226 leukemia): 5.43 µM
GI50 (SF-295 CNS): 2.68 µM
TGI (SF-295 CNS): 8.25 µM
GI50 (SK-MEL-2 melanoma): 3.04 µM
TGI (SK-MEL-2 melanoma): 8.6 µM
GI50 (SK-MEL-28 melanoma): 2.99 µM
TGI (SK-MEL-28 melanoma): 9.97 µM
GI50 (SNB-19 CNS): 3.75 µM
TGI (SNB-19 CNS): > 48.8 µM
GI50 (T-47D breast): 2.19 µM
TGI (T-47D breast): 7.29 µM
GI50 (UACC-62 melanoma): 2.18 µM
TGI (UACC-62 melanoma): 8.53 µM

N#Cc1c(-c2ccc(Cl)cc2)n(O)c2ccccc12
GI50 (HCC-2998 colon): 3 µM
TGI (HCC-2998 colon): 8.01 µM
GI50 (HOP-62 NSCLC): 2.23 µM
TGI (HOP-62 NSCLC): 7.9 µM
GI50 (MDA-MB-435): 0.29 µM
TGI (MDA-MB-435): 1.26 µM
GI50 (RPMI-8226 leukemia): 1.6 µM
TGI (RPMI-8226 leukemia): 6.48 µM
GI50 (SF-295 CNS): 2.33 µM
TGI (SF-295 CNS): 6.09 µM
GI50 (SK-MEL-2 melanoma): 1.46 µM
TGI (SK-MEL-2 melanoma): 5.46 µM
GI50 (SK-MEL-28 melanoma): 1.42 µM
TGI (SK-MEL-28 melanoma): 26.4 µM
GI50 (SNB-19 CNS): 2.71 µM
TGI (SNB-19 CNS): 80.4 µM
GI50 (T-47D breast): 2.88 µM
TGI (T-47D breast): 11.1 µM
GI50 (UACC-62 melanoma): 2.79 µM
TGI (UACC-62 melanoma): 12.3 µM

CCCCCCCC/C=C/CCCCCCCC1=NCC[N+]1(CCO)CCO
GI50 (HCC-2998 colon): 3.67 µM
TGI (HCC-2998 colon): 20.3 µM
GI50 (HOP-62 NSCLC): 6.36 µM
TGI (HOP-62 NSCLC): 19.8 µM
GI50 (MDA-MB-435): 2.35 µM
TGI (MDA-MB-435): 7.95 µM
GI50 (RPMI-8226 leukemia): 2.71 µM
TGI (RPMI-8226 leukemia): 10.8 µM
GI50 (SF-295 CNS): 1.75 µM
TGI (SF-295 CNS): 4.07 µM
GI50 (SK-MEL-2 melanoma): 2.69 µM
TGI (SK-MEL-2 melanoma): 6.01 µM
GI50 (SK-MEL-28 melanoma): 9.71 µM
TGI (SK-MEL-28 melanoma): 21.6 µM
GI50 (SNB-19 CNS): 4.49 µM
TGI (SNB-19 CNS): 25.2 µM
GI50 (T-47D breast): 7.08 µM
TGI (T-47D breast): 22.7 µM
GI50 (UACC-62 melanoma): 5 µM
TGI (UACC-62 melanoma): 21.4 µM

CC(C)[C@@]12C[C@@H](OC(=O)[C@H]3CO3)[C@@](C)(O1)[C@@H]1CC[C@@H](C)[C@H]1[C@@H]2OC(=O)/C=C/c1ccccc1
GI50 (HCC-2998 colon): 17.8 µM
TGI (HCC-2998 colon): 41.5 µM
GI50 (HOP-62 NSCLC): 33.2 µM
TGI (HOP-62 NSCLC): > 100 µM
GI50 (MDA-MB-435): 20.6 µM
TGI (MDA-MB-435): > 73.5 µM
GI50 (RPMI-8226 leukemia): 13.5 µM
TGI (RPMI-8226 leukemia): 68.2 µM
GI50 (SF-295 CNS): 15.3 µM
TGI (SF-295 CNS): 35.5 µM
GI50 (SK-MEL-2 melanoma): 16.7 µM
TGI (SK-MEL-2 melanoma): 47.7 µM
GI50 (SK-MEL-28 melanoma): 18.7 µM
TGI (SK-MEL-28 melanoma): 57.2 µM
GI50 (SNB-19 CNS): 21.6 µM
TGI (SNB-19 CNS): 74.6 µM
GI50 (T-47D breast): 8.11 µM
TGI (T-47D breast): > 49.9 µM
GI50 (UACC-62 melanoma): 13.6 µM
TGI (UACC-62 melanoma): 35.7 µM
